Among the data in patent US20240287138A1, “CYCLIC PEPTIDES FOR INHIBITING TNF RECEPTOR 1 ACTIVITY” (Merck Sharp & Dohme LLC, priority 2023, published 2024) are Kd and IC50 values, retold here.

pIC50, pKd: −log10 of the molar value. Like-named read-outs stand apart in the source and are kept apart here. Numbered stars: 1 amine (or outer) side, 2 acyl side, 3 side chain; on linkers, the order of the positions; unused ones are H or OH. Square brackets hold non-standard residues; d marks the D form. Peptide text beside a SMILES is read from it. * marks the point of attachment. Trp(βS-Me,7-OMe) = COc1cccc2c([C@H](C)[C@H](N)C(=O)O)c[nH]c12; dPro(trans-4-NMe3+) = C[N+](C)(C)[C@@H]1CN[C@@H](C(=O)O)C1; Phe(4-SO2NH2) = N[C@@H](Cc1ccc(S(N)(=O)=O)cc1)C(=O)O; Ala(indazol-1-yl) = N[C@@H](Cn1ncc2ccccc21)C(=O)O; Trp(7-CN) = N#Cc1cccc2c(C[C@H](N)C(=O)O)c[nH]c12; Trp(7-Cl) = N[C@@H](Cc1c[nH]c2c(Cl)cccc12)C(=O)O; Ala(pyrimidin-5-yl) = N[C@@H](Cc1cncnc1)C(=O)O; Phe(3-CONH2) = NC(=O)c1cccc(C[C@H](N)C(=O)O)c1; Phe(4-CONH2) = NC(=O)c1ccc(C[C@H](N)C(=O)O)cc1; Phe(4-COOH) = N[C@@H](Cc1ccc(C(=O)O)cc1)C(=O)O; Trp(7-aza) = N[C@@H](Cc1c[nH]c2ncccc12)C(=O)O; X63 = O=C([C@@H]1CC[C@H](O)CN1[*:1])[*:2]; dPro(4S-NH2) = N[C@@H]1CN[C@@H](C(=O)O)C1; Pip(5R-OH) = O=C(O)[C@@H]1CC[C@@H](O)CN1; X1 = O=C([C@@H]1CC[C@H](N[*:1])C1)[*:2]; 4Pal = N[C@@H](Cc1ccncc1)C(=O)O; dHyp = O=C(O)[C@H]1C[C@H](O)CN1; αMeS = C[C@](N)(CO)C(=O)O; Carboxymethyl = O=C(O)C*; Nle = CCCC[C@H](N)C(=O)O; Sar = CNCC(=O)O

The target in assay [1] is T1, human soluble TNFR1 (sTNFR1) (Homo sapiens, UniProt P19438).
T1 construct: made in house; host or cells: Sf21 (baculovirus)
T1 sequence (P19438 with tags, fused parts or gaps): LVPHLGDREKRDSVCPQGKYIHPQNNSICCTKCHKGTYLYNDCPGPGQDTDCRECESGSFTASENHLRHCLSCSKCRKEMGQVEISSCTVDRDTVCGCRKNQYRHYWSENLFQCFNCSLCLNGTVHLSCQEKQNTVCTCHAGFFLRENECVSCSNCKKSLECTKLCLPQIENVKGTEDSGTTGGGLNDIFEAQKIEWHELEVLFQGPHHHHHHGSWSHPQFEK
Briefly: Human sTNFR1-peptide displacement assay (LanthaScreen Eu TR-FRET binding assay). As for the experimental part: A. Procedure for Human sTNFR1-Peptide Displacement Assay
The affinity was determined using LanthaScreen Eu-based time-resolved fluorescence resonance energy transfer (TR-FRET)-based binding assay.
A TR-FRET assay measuring the displacement of biotinylated peptide SEQ ID NO. 1 from human soluble TNFR1 (sTNFR1) in a pre-formed complex by a macrocyclic peptide yields the affinity (Kd^app) of the cyclic peptide for sTNFR1. The reagents for the assay include: the C′-terminally 6His-tagged sTNFR1 (residues 1-211) protein purified from a Sf21 baculovirus expression system, the biotin-tagged B0372 peptide described in section “Preparation of Final Compounds”, part E, the LanthaScreen™ anti-His Tag Europium donor (Life Technologies Corporation (San Diego, CA), cat. #PV5597), and a streptavidin-conjugate Alexa Fluor™ 647 acceptor (Invitrogen (Waltham, MA), cat. #S32357). Time-resolved TR-FRET is achieved when sTNFR1 is bound to biotinylated peptide SEQ ID NO. 1 through coupling of the donor and acceptor FRET pair.
100 nM biotinylated peptide SEQ ID NO. […] 100 nM biotinylated peptide SEQ ID NO. 1 was chosen as it reflects the ˜Kd for this complex. After 30 min at ambient temperature, each test peptide (2 mM stock in DMSO) is titrated in a 20 point, ˜3-fold discrete dose-response using an acoustic-dispense liquid handler. Specifically, 80 nL of peptide/DMSO is transferred into a ProxiPlate-384 Plus 384-well assay plate (PerkinElmer, cat. #6008289). To this plate, 8 μL of the previously formed sTNFR 1-biotinylated peptide SEQ ID NO. 1 complex is added and allowed to reach binding equilibrium with the test peptide at ambient temperature for 90 min.
The TR-FRET signal is measured with the following EnVision® settings: excitation laser at 337 nm; emission1=615 nm, emission2=665 nm, LANCE/DELFIA dichroic mirror, delay time=[…]. The signal of each well is determined as the ratio of the emission at 665 nm to that at 615 nm. Percent displacement is determined by normalization to control wells containing DMSO (0%) or a saturating concentration of a displaceable peptide (100%). The %-effect as a function of peptide concentration is fit to a five-parameter logistic fit based on the Morrison equation to account for tight binding kinetics.

Assay [2] has as its target T2, TNFα-induced NF-κB signal transduction pathway (TNFR1 signaling) in THP-1 cells (Homo sapiens, UniProt P19438).
T2 sequence (P19438 30-455): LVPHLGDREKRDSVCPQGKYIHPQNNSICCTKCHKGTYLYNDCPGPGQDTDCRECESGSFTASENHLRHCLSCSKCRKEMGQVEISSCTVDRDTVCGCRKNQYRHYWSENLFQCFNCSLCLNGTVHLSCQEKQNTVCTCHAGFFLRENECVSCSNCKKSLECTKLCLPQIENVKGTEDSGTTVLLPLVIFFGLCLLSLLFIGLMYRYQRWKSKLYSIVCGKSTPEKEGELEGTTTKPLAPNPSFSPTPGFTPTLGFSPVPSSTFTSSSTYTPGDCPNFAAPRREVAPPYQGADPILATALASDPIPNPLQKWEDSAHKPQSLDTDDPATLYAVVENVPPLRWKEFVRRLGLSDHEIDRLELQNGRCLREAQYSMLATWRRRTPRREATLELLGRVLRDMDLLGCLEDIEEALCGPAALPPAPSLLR
The assay is described as follows: THP-1 Lucia NF-κB reporter cell assay, inhibition of TNFα-induced NF-κB signaling. In kind it is cell-based. To be noted: THP-1 NF-κB Lucia reporter cells, 10 ng/mL TNFα, 16-18 h, secreted luciferase; read-out: THP-1 IC50. The method in brief: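 Macrocyclic peptides were preincubated 1 h at 37 °C with THP-1 NF-κB-Lucia reporter cells (20,000 cells/well) in antibiotic-free RPMI 1640/10% FBS, then stimulated with 10 ng/mL human TNFα overnight (16-18 h). Secreted luciferase in supernatant was read by luminescence; IC50 from 4-parameter logistic fits.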

`CCCC[C@@H]1NC(=O)[C@@H]2CC[C@@H](C2)NC(=O)[C@H]([C@@H](C)c2c[nH]c3c(OC)cccc23)NC(=O)CN(C)C(=O)[C@H](Cc2ccc(C(=O)O)cc2)NC(=O)[C@H](Cc2ccc(S(N)(=O)=O)cc2)NC(=O)[C@](C)(CO)NC(=O)[C@H](Cc2c[nH]c3c(C#N)cccc23)NC(=O)[C@H](Cc2ccncc2)NC(=O)[C@H](CC(N)=O)NC(=O)[C@H]2C[C@H](OCC(=O)O)CN2C(=O)[C@H](Cc2c[nH]c3ncccc23)NC(=O)[C@@H]2CC[C@@H](O)CN2C(=O)[C@H](Cc2ccncc2)NC1=O` [SEQ ID NO. 31] (cyclo([4Pal][Trp(7-CN)][αMeS][Phe(4-SO2NH2)][Phe(4-COOH)][Sar][Trp(βS-Me,7-OMe)][X1][Nle][4Pal][Pip(5R-OH)][Trp(7-aza)][dHyp](Carboxymethyl)N)): the pKd in assay [1] (displacement of biotinylated peptide SEQ ID NO. 1 from sTNFR1, 20 point titration, 5-parameter fit based on Morrison equation (tight binding), read-out: TR-FRET Kd^app) was 10.40. Also, the pIC50 in assay [2] was 9.40.

For the molecule `CCCC[C@@H]1NC(=O)[C@@H]2CC[C@@H](C2)NC(=O)[C@H]([C@@H](C)c2c[nH]c3c(OC)cccc23)NC(=O)CN(C)C(=O)[C@H](Cc2ccc(OCC(=O)O)cc2)NC(=O)[C@H](Cc2ccc(S(N)(=O)=O)cc2)NC(=O)[C@](C)(CO)NC(=O)[C@H](Cc2c[nH]c3c(C#N)cccc23)NC(=O)[C@H](Cc2ccc(OCC(=O)O)cc2)NC(=O)[C@H](CC(N)=O)NC(=O)[C@H]2C[C@H](N)CN2C(=O)[C@H](Cc2c[nH]c3ccccc23)NC(=O)[C@@H]2CC[C@@H](O)CN2C(=O)[C@H](Cc2cncnc2)NC1=O` [SEQ ID NO. 37] (cyclo(NY(Carboxymethyl)[Trp(7-CN)][αMeS][Phe(4-SO2NH2)]Y(Carboxymethyl)[Sar][Trp(βS-Me,7-OMe)][X1][Nle][Ala(pyrimidin-5-yl)][Pip(5R-OH)]W[dPro(4S-NH2)])), the pKd in assay [1] is 10.05. For the same molecule, the negative-log IC50 (pIC50) in assay [2] was 9.22.

With `CCCC[C@@H]1NC(=O)[C@@H]2CC[C@@H](C2)NC(=O)[C@H]([C@@H](C)c2c[nH]c3c(OC)cccc23)NC(=O)CN(C)C(=O)[C@H](Cc2ccc(OCC(=O)O)cc2)NC(=O)[C@H](Cc2ccc(S(N)(=O)=O)cc2)NC(=O)[C@](C)(CO)NC(=O)[C@H](Cc2c[nH]c3c(C#N)cccc23)NC(=O)[C@H](Cc2ccc(OCC(=O)O)cc2)NC(=O)[C@H](CC(N)=O)NC(=O)[C@H]2C[C@H]([N+](C)(C)C)CN2C(=O)[C@H](Cn2ncc3ccccc32)NC(=O)[C@@H]2CC[C@@H](O)CN2C(=O)[C@H](Cc2cncnc2)NC1=O` [SEQ ID NO. 43] (cyclo(NY(Carboxymethyl)[Trp(7-CN)][αMeS][Phe(4-SO2NH2)]Y(Carboxymethyl)[Sar][Trp(βS-Me,7-OMe)][X1][Nle][Ala(pyrimidin-5-yl)][Pip(5R-OH)][Ala(indazol-1-yl)][dPro(trans-4-NMe3+)])), the pKd in assay [1] was 10.05. Also, the pIC50 in assay [2] is 9.22.

Take `CCCC[C@@H]1NC(=O)[C@@H]2CC[C@@H](C2)NC(=O)[C@H]([C@@H](C)c2c[nH]c3c(OC)cccc23)NC(=O)CN(C)C(=O)[C@H](Cc2cccc(C(N)=O)c2)NC(=O)[C@H](Cc2ccc(C(N)=O)cc2)NC(=O)[C@](C)(CO)NC(=O)[C@H](Cc2c[nH]c3c(Cl)cccc23)NC(=O)[C@H](Cc2ccncc2)NC(=O)[C@H](CC(N)=O)NC(=O)[C@H]2C[C@H](O)CN2C(=O)[C@H](Cc2c[nH]c3ccccc23)NC(=O)[C@@H]2CC[C@H](O)CN2C(=O)[C@H](Cc2ccncc2)NC1=O` [SEQ ID NO. 67] (cyclo([4Pal][Trp(7-Cl)][αMeS][Phe(4-CONH2)][Phe(3-CONH2)][Sar][Trp(βS-Me,7-OMe)][X1][Nle][4Pal][X63]W[dHyp]N)): the pKd in assay [1] was 9.70. For the same molecule, in assay [2], the negative logarithm of the IC50 (pIC50) was 9.40.
